Assay results published in article PMC5589637, “New perspectives of cobalt tris(bipyridine) system: anti-cancer effect and its collateral sensitivity towards multidrug-resistant (MDR) cancers” (Oncotarget, 2017).

Assays:
[1] = system: HCT116 p53^+/+ colon cancer cells; experiment: MTT cytotoxicity, HCT116 p53+/+; format: cell-based, human; details: 72 h
Description: (§1) All cells were obtained from the American Type Culture Collection (Rockville, MD, USA) unless otherwise specified. Immortalized wild-type and Atg7-deficient mouse embryonic fibroblasts (MEFs) were kindly provided by Professor Masaaki Komatsu (Juntendo University, School of Medicine, Japan). Taxol-resistant types of MCF-7, HCT-8, A549 cancers cells and cisplatin-resistant SGC7901 cancer cells were purchased from KeyGEN BioTECH, China. Cisplatin-sensitive or –resistant A2780, OV2008 and C13 cancer cells were kindly provided by Prof. Benjamin Tsang (Department of Obstetrics and Gynecology and Department of Cellular and Molecular Medicine, University of Ottawa, Canada). HCT116 p53^+/+ and p53^−/− isogenic human colon cancer cells were kindly provided by Professor Bert Vogelstein (Ludwig Center at Johns Hopkins, Howard Hughes Medical Institute, USA). All media were supplemented with 10% fetal bovine serum and antibiotics penicillin (50 U/ml) and streptomycin (50 μg/ml; Invitrogen, Paisley, Scotland, UK). All cell cultures were incubated at 37°C in a 5% humidified CO2 incubator.
(§2) All tested compounds were dissolved in DMSO at a final concentration of 50 mmol/L and stored at −20°C before use. Cytotoxicity was assessed by using the 3-(4,5-dimethylthiazol-2-yl)-2, 5-diphenyltetrazolium bromide (MTT) (5.0 mg/ml) assay as previously described. Briefly, 4×10^3 cells per well were seeded in 96-well plates before drug treatments. After overnight culture, the cells were then exposed to different concentrations of selected compounds ([…]) for 72 hours. Cells without drug treatment were used as control. Subsequently, MTT (10 μL) solution was added to each well and incubated at 37°C for 4 hours followed by the addition of 100 μL solubilization buffer (10%SDS in 0.01 mol/L HCl) and overnight incubation. A570 nm was then determined in each well on the next day. The percentage of cell viability was calculated using the following formula: Cell viability (%) = Atreated/Acontrol × 100. Data were obtained from three independent experiments.

[2] = system: SGC-7901 cisplatin-sensitive cancer cells; experiment: MTT cytotoxicity, cisplatin-sensitive SGC-7901; format: cell-based; details: 72 h
Description: as §1, §2

[3] = system: HCT-8 taxol-resistant cancer cells; experiment: MTT cytotoxicity, taxol-resistant HCT-8; format: cell-based; details: for IC50: HCT-8 taxol-resistant, MTT, 72 h; for Resistant Factor, HCT-8: IC50 of taxol-resistant cells over IC50 of taxol-sensitive cells
Description: as §1, §2

[4] = system: MCF-7 taxol-sensitive cancer cells; experiment: MTT cytotoxicity, taxol-sensitive MCF-7; format: cell-based
Description: as §1, §2

[5] = system: A2780 cisplatin-sensitive cancer cells; experiment: MTT cytotoxicity, cisplatin-sensitive A2780; format: cell-based; details: 72 h
Description: as §1, §2

[6] = system: HCT-8 taxol-sensitive cancer cells; experiment: MTT cytotoxicity, taxol-sensitive HCT-8; format: cell-based; details: 72 h
Description: as §1, §2

[7] = system: MCF-7 (breast cancer) cells; experiment: MTT cytotoxicity assay, MCF-7; format: cell-based; details: MCF-7, MTT, 72 h
Experimental: as §2

[8] = system: LLC-1 (mouse lung cancer) cells; experiment: MTT cytotoxicity assay, LLC-1; format: cell-based; details: LLC-1, MTT, 72 h
Experimental: as §2

[9] = system: A549 taxol-sensitive cancer cells; experiment: MTT cytotoxicity, taxol-sensitive A549; format: cell-based; details: 72 h
Description: as §1, §2

[10] = system: Hep3B (liver cancer) cells; experiment: MTT cytotoxicity assay, Hep 3B; format: cell-based; details: 72 h
Experimental: as §2

[11] = system: SGC-7901 cisplatin-resistant cancer cells; experiment: MTT cytotoxicity, cisplatin-resistant SGC-7901; format: cell-based; details: for IC50: SGC-7901 cisplatin-resistant, MTT, 72 h; for Resistant Factor, SGC-7901: cisplatin-resistant over cisplatin-sensitive IC50, SGC-7901
Description: as §1, §2

[12] = system: H1975 (EGFR mutant lung cancer) cells; experiment: MTT cytotoxicity assay, H1975; format: cell-based; details: 72 h
Experimental: as §2

[13] = system: MCF-7 taxol-resistant cancer cells; experiment: MTT cytotoxicity, taxol-resistant MCF-7; format: cell-based; details: for Resistant Factor, MCF-7: IC50 of taxol-resistant cells over IC50 of taxol-sensitive cells; for IC50: MCF-7 taxol-resistant, MTT, 72 h
Description: as §1, §2

[14] = system: OV2008 (cisplatin-sensitive) cells; experiment: MTT cytotoxicity, OV2008 (cisplatin-sensitive); format: cell-based; details: 72 h, read-out: IC50 value, cisplatin-sensitive cancer, OV2008
Description: as §1, §2

[15] = system: normal human LO2 hepatocytes; experiment: MTT cytotoxicity assay, LO2; format: cell-based; details: 72 h
Experimental: as §2

[16] = system: HCT116 p53^-/- colon cancer cells; experiment: MTT cytotoxicity, HCT116 p53-/-; format: cell-based, human; details: for IC50: HCT116 p53-/-, MTT, 72 h; for Resistant Factor, HCT116 p53-/- vs p53+/+: IC50 p53-/- over IC50 p53+/+
Description: as §1, §2

[17] = system: A2780 cisplatin-resistant cancer cells; experiment: MTT cytotoxicity, cisplatin-resistant A2780; format: cell-based; details: for IC50: A2780 cisplatin-resistant, MTT, 72 h; for Resistant Factor, A2780: cisplatin-resistant over cisplatin-sensitive IC50, A2780
Description: as §1, §2

[18] = system: A549 (EGFR wild-type lung cancer) cells; experiment: MTT cytotoxicity assay, A549; format: cell-based; details: 72 h
Experimental: as §2

[19] = system: C13 (cisplatin-resistant) cells; experiment: MTT cytotoxicity, C13 (cisplatin-resistant); format: cell-based; details: for IC50: C13 (cisplatin-resistant), MTT, 72 h, read-out: IC50 value, cisplatin-resistant cancer, C13; for Resistant Factor, OV2008/C13 pair: C13 (resistant) IC50 over OV2008 (sensitive) IC50
Description: as §1, §2

[20] = system: H1299 (lung cancer) cells; experiment: MTT cytotoxicity assay, H1299; format: cell-based, human; details: 72 h
Experimental: as §2

[21] = system: HeLa (cervical cancer) cells; experiment: MTT cytotoxicity assay, HeLa; format: cell-based; details: 72 h
Experimental: as §2

[22] = system: A549 taxol-resistant cancer cells; experiment: MTT cytotoxicity, taxol-resistant A549; format: cell-based; details: for IC50: A549 taxol-resistant, MTT, 72 h; for Resistant Factor, A549: IC50 of taxol-resistant cells over IC50 of taxol-sensitive cells
Description: as §1, §2

[23] = system: HepG2 (liver cancer) cells; experiment: MTT cytotoxicity assay, HepG2; format: cell-based; details: 72 h
Experimental: as §2

[24] = system: taxol-resistant MCF-7, HCT-8, and A549 cancer cells; experiment: MTT cytotoxicity, summary over taxol-sensitive/resistant MCF-7, HCT-8 and A549 pairs; format: cell-based; details: IC50 of taxol-resistant over taxol-sensitive cells; over MCF-7, HCT-8 and A549
Experimental: as §2

Cc1ccnc(-c2cc(C)ccn2)c1.Cc1ccnc(-c2cc(C)ccn2)c1.Cc1ccnc(-c2cc(C)ccn2)c1.F[P-](F)(F)(F)(F)F.F[P-](F)(F)(F)(F)F.[Co+2] [complex 1, [Co^II(4,4’-Me2-bpy)3](PF6)2]
IC50 [1]: 17.1 µM
IC50 [2]: 11.7 µM
IC50 [3]: 1.16 µM
Resistant Factor, HCT-8 [3]: 0.37
IC50 ([4]; 72 h): 4.62 µM
IC50 [5]: 11.9 µM
IC50 [6]: 3.13 µM
IC50 [7]: 15.4 µM
IC50 [8]: 2.79 µM
IC50 [9]: 9.59 µM
IC50 [10]: 4.06 µM
IC50 [11]: 17.6 µM
Resistant Factor, SGC-7901 [11]: 1.50
IC50 [12]: 15.4 µM
Resistant Factor, MCF-7 [13]: 0.54
IC50 [13]: 2.51 µM
IC50 [14]: 7.06 µM
IC50 [15]: 13.5 µM
IC50 [16]: 8.89 µM
Resistant Factor, HCT116 p53-/- vs p53+/+ [16]: 0.52
IC50 [17]: 11.2 µM
Resistant Factor, A2780 [17]: 0.94
IC50 [18]: 9.45 µM
IC50 [19]: 15.6 µM
Resistant Factor, OV2008/C13 pair [19]: 2.21
IC50 [20]: 3.43 µM
IC50 [21]: 10.1 µM
IC50 [22]: 2.37 µM
Resistant Factor, A549 [22]: 0.25
IC50 [23]: 7.39 µM

COc1ccnc(-c2cc(OC)ccn2)c1.COc1ccnc(-c2cc(OC)ccn2)c1.COc1ccnc(-c2cc(OC)ccn2)c1.F[P-](F)(F)(F)(F)F.F[P-](F)(F)(F)(F)F.F[P-](F)(F)(F)(F)F.[Co+3] [complex 5, [Co^III(4,4’-(OMe)2-bpy)3](PF6)3]
IC50 [1]: 77.8 µM
IC50 [2]: 21.6 µM
IC50 [3]: 1.04 µM
Resistant Factor, HCT-8 [3]: 0.24
IC50 ([4]; 72 h): 9.45 µM
IC50 [5]: 24 µM
IC50 [6]: 4.3 µM
IC50 [7]: 10.8 µM
IC50 [8]: 8.71 µM
IC50 [9]: 15 µM
IC50 [10]: 5.33 µM
IC50 [11]: 20.7 µM
Resistant Factor, SGC-7901 [11]: 0.96
IC50 [12]: 9.31 µM
Resistant Factor, MCF-7 [13]: 0.66
IC50 [13]: 6.28 µM
IC50 [14]: 14 µM
IC50 [15]: 20.6 µM
IC50 [16]: 41.3 µM
Resistant Factor, HCT116 p53-/- vs p53+/+ [16]: 0.53
IC50 [17]: 27 µM
Resistant Factor, A2780 [17]: 1.13
IC50 [18]: 18.6 µM
IC50 [19]: 20.3 µM
Resistant Factor, OV2008/C13 pair [19]: 1.45
IC50 [20]: 8.71 µM
IC50 [21]: 12.8 µM
IC50 [22]: 2.85 µM
Resistant Factor, A549 [22]: 0.19
IC50 [23]: 15.4 µM

CC(=O)O[C@H]1C(=O)[C@@]2(C)[C@H]([C@H](OC(=O)c3ccccc3)[C@]3(O)C[C@H](OC(=O)[C@H](O)[C@@H](NC(=O)c4ccccc4)c4ccccc4)C(C)=C1C3(C)C)[C@]1(OC(C)=O)CO[C@@H]1C[C@@H]2O [Taxol, reference compound]
IC50 ([3]; Homo sapiens): > 200 µM
Resistant Factor, HCT-8 [3]: >15.9
IC50 ([4]; Homo sapiens, MCF7, 72 h): 12.2 µM
IC50 ([6]; Homo sapiens): 12.6 µM
resistant factor in taxol-resistant cancers (summary) [24]: up to 42.4
IC50 ([9]; Homo sapiens): 1.56 µM
IC50 ([13]; Homo sapiens, MCF7): 55 µM
Resistant Factor, MCF-7 [13]: 4.51
IC50 ([22]; Homo sapiens): 66.1 µM
Resistant Factor, A549 [22]: 42.4
